Source: patent US9346812B2, “Substituted pyrrolopyrimidine compounds, compositions thereof, and methods of treatment therewith” (Signal Pharmaceutical LLC, priority 2013, dated 2016)

system: CAL51 cell proliferation; assay: Cell Titer Glo Proliferation Assay (CAL51); assay type: cell-based, human; settings: Homo sapiens, CAL-51; CAL51 cell proliferation, 72 h, Cell Titer Glo luminescence; read-out: Act. Level
Description: Cell Titer Glo Proliferation Assay. Triple negative breast cancer cell line CAL51 was purchased from DSMZ. […] Allcell lines were maintained in growth media consisting of 90% high glucose Dulbecco's Modified Eagle Medium or RPMI1640 (Invitrogen), 10% fetal bovine serum (Hyclone), and 2 mM L-glutamine (Invitrogen). […] After overnight culture, compound stock (30 mM) was diluted serially in DMSO, further diluted in growth media, and was added to each well as a 10× concentrated solution in a volume of 11 μL, mixed, and allowed to incubate with cells. The compound vehicle (DMSO) was maintained at a final concentration of 0.2% in all wells. After 72 h, 100 μL of Cell Titer Glo solution (Promega) was added to each well of the 96-well plate. The plate was placed on a shaker for 2 minutes. After 10 minutes incubation, the luminescence signal was detected with Envision microplate reader (Perkin Elmer).

SMILES | IC50 [nM]
CNC(=O)c1ccc(Nc2nc(OC)c3c(-c4ccnc(C)c4)c[nH]c3n2)c(OC)c1 [Example 166, 3-methoxy-4-(4-methoxy-5-(2-methylpyridin-4-yl)-7H-pyrrolo [2,3-d]pyrimidin-2-ylamino)-N-methylbenzamide] | < 100
COc1cc(C(=O)N2CCN(C)CC2)ccc1Nc1nc(OC2CCCC2)c2c(-c3ccc4nc(C)oc4c3)c[nH]c2n1 [Example 259, (4-(4-(cyclopentyloxy)-5-(2-methylbenzo[d]oxazol-6-yl)-7H-pyrrolo[2,3-d]pyrimidin-2-ylamino)-3-methoxyphenyl)(4-methylpiperazin-1-yl)methanone] | < 100
CNCCNC(=O)c1ccc(Nc2nc(OC3CCOCC3)c3c(-c4ccc5nc(C)oc5c4)c[nH]c3n2)c(OC)c1 [Example 130, 3-methoxy-N-(2-(methylamino)ethyl)-4-(5-(2-methylbenzo[d]oxazol-6-yl)-4-(tetrahydro-2H-pyran-4-yloxy)-7H-pyrrolo [2,3-d]pyrimidin-2-ylamino)benzamide] | 100 to 400
CC[C@H](C)Oc1nc(Nc2ccc(C(=O)NC)cc2OC)nc2[nH]cc(-c3cnn(C)c3)c12 [Example 276, (S)-4-(4-sec-butoxy-5-(1-methyl-1H-pyrazol-4-yl)-7H-pyrrolo[2,3-d]pyrimidin-2-ylamino)-3-methoxy-N-methylbenzamide] | < 100
CNC(=O)c1ccc(-c2c[nH]c3nc(Nc4ccnn4C)nc(OC4CCCC4)c23)cc1 [Example 316, 4-(4-(cyclopentyloxy)-2-(1-methyl-1H-pyrazol-5-ylamino)-7H-pyrrolo [2,3-d]pyrimidin-5-yl)-N-methylbenzamide] | < 100
C[C@H](O)c1cccc(-c2c[nH]c3nc(Nc4ccc(C(=O)N(C)C)cc4Cl)nc(NC4CCOCC4)c23)c1 [Example 85, (S)-3-chloro-4-(5-(3-(1-hydroxy-ethyl)phenyl)-4-(tetrahydro-2H-pyran-4-ylamino)-7H-pyrrolo[2,3-d]pyrimidin-2-ylamino)-N,N-dimethylbenzamide] | < 100
COc1cc(C(=O)NCCN(C)C)ccc1Nc1nc(OC2CCOCC2)c2c(-c3ccc4nc(C)oc4c3)c[nH]c2n1 [Example 127, N-(2-(dimethylamino)ethyl)-3-methoxy-4-(5-(2-methylbenzo[d]oxazol-6-yl)-4-(tetrahydro-2H-pyran-4-yloxy)-7H-pyrrolo[2,3-d]pyrimidin-2-ylamino)benzamide] | < 100
CNC(=O)c1ccc(Nc2nc(OC3CCC3)c3c(-c4ccc5nc(C)oc5c4)c[nH]c3n2)c(OC)c1 [Example 198, 4-(4-cyclobutoxy-5-(2-methylbenzo[d]oxazol-6-yl)-7H-pyrrolo[2,3-d]pyrimidin-2-ylamino)-3-methoxy-N-methylbenzamide] | < 100
CNC(=O)c1ccc(-c2c[nH]c3nc(Nc4ccc(C(=O)NC)cc4OC)nc(OC4CCOCC4)c23)cc1 [Example 123, 3-methoxy-N-methyl-4-(5-(4-(methylcarbamoyl)phenyl)-4-(tetrahydro-2H-pyran-4-yloxy)-7H-pyrrolo[2,3-d]pyrimidin-2-ylamino) benzamide] | < 100
CNC(=O)c1ccc(Nc2nc(NC(C)C)c3c(-c4ccc5nc(C)oc5c4)c[nH]c3n2)c(OC)c1 [Example 202, 4-(4-(isopropylamino)-5-(2-methylbenzo[d]oxazol-6-yl)-7H-pyrrolo[2,3-d]pyrimidin-2-ylamino)-3-methoxy-N-methylbenzamide] | < 100
CNC(=O)c1ccc(Nc2nc(NC3CCCCC3)c3c(-c4ccc(O)cc4)c[nH]c3n2)c(OC)c1 [Example 36, 4-(4-(cyclohexylamino)-5-(4-hydroxyphenyl)-7H-pyrrolo[2,3-d]pyrimidin-2-ylamino)-3-methoxy-N-methylbenzamide] | < 100
CNC(=O)c1ccc(Nc2nc(O[C@H]3CC[C@@](C)(O)CC3)c3c(-c4ccc5nc(C)oc5c4)c[nH]c3n2)c(C)c1 [Example 151, 4-(4-((1s,4s)-4-hydroxy-4-methylcyclohexyloxy)-5-(2-methylbenzo[d]oxazol-6-yl)-7H-pyrrolo[2,3-d]pyrimidin-2-ylamino)-N,3-dimethylbenzamide] | < 100
COc1cc(C(=O)N(C)CCCO)ccc1Nc1nc(OC2CCCC2)c2c(-c3ccc4nc(C)oc4c3)c[nH]c2n1 [Example 283] | < 100
COc1cc(C(=O)NCC(C)(F)F)ccc1Nc1nc(OC2CCCC2)c2c(-c3ccc4nc(C)oc4c3)c[nH]c2n1 [Example 309, 4-(4-(cyclopentyloxy)-5-(2-methylbenzo[d]oxazol-6-yl)-7H-pyrrolo[2,3-d]pyrimidin-2-ylamino)-N-(2,2-difluoropropyl)-3-methoxybenzamide] | 100 to 400
COc1cc(C(=O)N[C@H](C)CO)ccc1Nc1nc(OC2CCCC2)c2c(-c3ccc4nc(C)oc4c3)c[nH]c2n1 [Example 214, (R)-4-(4-(cyclopentyloxy)-5-(2-methylbenzo[d]oxazol-6-yl)-7H-pyrrolo[2,3-d]pyrimidin-2-ylamino)-N-(1-hydroxypropan-2-yl)-3-methoxybenzamide] | < 100
CNC(=O)c1ccc(Nc2nc(NC3CCOCC3)c3c(-c4cnn(C)c4)c[nH]c3n2)c(OC)c1 [Example 210, 3-methoxy-N-methyl-4-(5-(1-methyl-1H-pyrazol-4-yl)-4-(tetrahydro-2H-pyran-4-ylamino)-7H-pyrrolo[2,3-d]pyrimidin-2-ylamino)benzamide] | < 100
CNC(=O)c1ccc(Nc2nc(OC3CCOCC3)c3c(-c4ccc5nc(C)oc5c4C)c[nH]c3n2)c(OC)c1 [Example 135, 4-(5-(2,7-dimethylbenzo[d]oxazol-6-yl)-4-(tetrahydro-2H-pyran-4-yloxy)-7H-pyrrolo[2,3-d]pyrimidin-2-ylamino)-3-methoxy-N-methylbenzamide] | 1000 to 10000
Cc1nc2ccc(-c3c[nH]c4nc(Nc5ccc6c(c5)CNC6=O)nc(OC5CCCC5)c34)cc2o1 [Example 235, 5-(4-(cyclopentyloxy)-5-(2-methylbenzo[d]oxazol-6-yl)-7H-pyrrolo[2,3-d]pyrimidin-2-ylamino)isoindolin-1-one] | < 100
COc1cc(C(=O)N2C[C@@H](OC)[C@H](OC)C2)ccc1Nc1nc(OC2CCCC2)c2c(-c3ccc4nc(C)oc4c3)c[nH]c2n1 [Example 311, (4-(4-(cyclopentyloxy)-5-(2-methylbenzo[d]oxazol-6-yl)-7H-pyrrolo[2,3-d]pyrimidin-2-ylamino)-3-methoxyphenyl) ((3R,4R)-3,4-dimethoxypyrrolidin-1-yl)methanone] | < 100
CNC(=O)c1ccc(Nc2nc(OC3CCCC3)c3c(-c4ccc(O)c(C)c4)c[nH]c3n2)c(OC)c1 [Example 43, 4-(4-(cyclopentyloxy)-5-(4-hydroxy-3-methylphenyl)-7H-pyrrolo[2,3-d]pyrimidin-2-ylamino)-3-methoxy-N-methylbenzamide] | < 100
CNC(=O)c1ccc(Nc2nc(OC3CCOCC3)c3c(-c4ccc(O)cc4)c[nH]c3n2)c(Cl)c1 [Example 29, 3-chloro-4-(5-(4-hydroxyphenyl)-4-(tetrahydro-2H-pyran-4-yloxy)-7H-pyrrolo[2,3-d]pyrimidin-2-ylamino)-N-methylbenzamide] | < 100
CNC(=O)c1cccc(-c2c[nH]c3nc(Nc4ccc(C(=O)NC)cc4C)nc(OC)c23)c1 [Example 149, 4-(4-methoxy-5-(3-(methylcarbamoyl)phenyl)-7H-pyrrolo[2,3-d]pyrimidin-2-ylamino)-N,3-dimethylbenzamide] | 1000 to 10000
Cc1nc2ccc(-c3c[nH]c4nc(Nc5cnn(C)c5C)nc(OC5CCCC5)c34)cc2o1 [Example 296, 4-(cyclopentyloxy)-N-(1,5-dimethyl-1H-pyrazol-4-yl)-5-(2-methylbenzo[d]oxazol-6-yl)-7H-pyrrolo[2,3-d]pyrimidin-2-amine] | < 100
CNC(=O)c1cc(OC)c(Nc2nc(OC3CCCC3)c3c(-c4ccc5nc(C)oc5c4)c[nH]c3n2)cn1 [Example 280, 5-(4-(cyclopentyloxy)-5-(2-methylbenzo[d]oxazol-6-yl)-7H-pyrrolo[2,3-d]pyrimidin-2-ylamino)-4-methoxy-N-methylpicolinamide] | < 100
COc1cc(C(=O)N(C)CCC(N)=O)ccc1Nc1nc(OC2CCCC2)c2c(-c3ccc4nc(C)oc4c3)c[nH]c2n1 [Example 257, N-(3-amino-3-oxopropyl)-4-(4-(cyclopentyloxy)-5-(2-methylbenzo[d]oxazol-6-yl)-7H-pyrrolo[2,3-d]pyrimidin-2-ylamino)-3-methoxy-N-methylbenzamide] | < 100
CNC(=O)c1ccc(Nc2nc(OC3CCCC3)c3c(-c4ccc(C#N)cc4)c[nH]c3n2)c(OC)c1 [Example 77, 4-(5-(4-cyanophenyl)-4-(cyclopentyloxy)-7H-pyrrolo[2,3-d]pyrimidin-2-ylamino)-3-methoxy-N-methylbenzamide] | 1000 to 10000
CNC(=O)c1ccc(Nc2nc(OC3CCOCC3)c3c(-c4ccncc4)c[nH]c3n2)c(C(C)C)c1 [Example 200, 3-isopropyl-N-methyl-4-(5-(pyridin-4-yl)-4-(tetrahydro-2H-pyran-4-yloxy)-7H-pyrrolo[2,3-d]pyrimidin-2-ylamino) benzamide] | 100 to 400
COc1cc(C(=O)NC(C)(C)C)ccc1Nc1nc(OC2CCCC2)c2c(-c3ccc4nc(C)oc4c3)c[nH]c2n1 [Example 224, N-tert-butyl-4-(4-(cyclopentyloxy)-5-(2-methylbenzo[d]oxazol-6-yl)-7H-pyrrolo[2,3-d]pyrimidin-2-ylamino)-3-methoxybenzamide] | 100 to 400
COc1cc(C(=O)N(C)CCC#N)ccc1Nc1nc(OC2CCCC2)c2c(-c3ccc4nc(C)oc4c3)c[nH]c2n1 [Example 248, N-(2-cyanoethyl)-4-(4-(cyclo-pentyloxy)-5-(2-methylbenzo[d]oxazol-6-yl)-7H-pyrrolo[2,3-d]pyrimidin-2-ylamino)-3-methoxy-N-methylbenzamide] | < 100
